# Results published in PMC11195807, “Development of a multi-targeted chemotherapeutic approach based on G-quadruplex stabilisation and carbonic anhydrase inhibition” (Journal of Enzyme Inhibition and Medicinal Chemistry, 2024).
# Tested on: GQ structures
# Assay: BG4 immunofluorescence of GQ foci, HeLa cells in normoxia
# Type: cell-based
# Settings: 24 h, 35.0 µM S-4,0, 40.0 µM C-4,2, 37.5 µM C-5,2, 2 µM RHPS4, over DMSO
# Excerpt: After measuring the viability of HeLa cells upon treatment with the newly synthesised MTDLs mentioned above, we probed the capability of the three most cytotoxic ones (S-4,0, C-4,2, and C-5,2) to affect the formation of GQ structures by immunofluorescence (IF) microscopy, using the BG4 antibody that selectively recognises the GQ structures. As it can be noticed in Figure 6, the fluorescence intensity of the total number of GQ foci increased by around 30% after treatment with both the coumarin derivative C-4,2 and the reference GQ binder RHPS4, whereas it was not affected by S-4,0 and C-5,2. […] On the contrary, the levels of GQ structures were influenced neither by the treatment with the sulphonamide S-4,0 nor by the coumarin C-5,2, despite their ability to thermally stabilise some GQ-forming sequences in vitro.
# Figure 6. (A) Representative fields showing G4 foci formation detected by immunofluorescence in HeLa cells treated for 24 h with 35.0 µM S-4,0, 40.0 µM C-4,2, and 37.5 µM C-5,2 or an equivalent amount of vehicle (0.1% DMSO). As a positive control, cells were treated with 2 µM RHPS4 (a well-established GQ ligand)[68] for 24 h. Scale bar: 10 µm. Upper panels: the merged channels of BG4-stained GQ structures (magenta) and Hoechst-counterstained nuclei (grey) are reported. Lower panels: enlargements from the pictures in the upper panels. (B) Quantitative analysis of the fluorescence intensity of the total number of GQ foci. An average of 50 cells were screened for each condition and the results are expressed as a fold change of fluorescence intensity (anti-GQ signal) over the negative control (DMSO). Histograms show the mean ± SD of three independent experiments. The statistical significance was calculated using a one-way ANOVA test on GraphPad Prism 8.0.2 (ns: not significant, **: p < 0.01).
# For the IF experiments in the presence of normal oxygen levels, HeLa cells were seeded on sterile coverslips, in a 24-well plate, at a density of 90,000 cells per well, and incubated overnight. Then, cells were treated with a sublethal concentration of each investigated MTDL or an equivalent amount of vehicle (0.1% DMSO), for 24 h. As positive control, cells were exposed for 24 h to 2 µM RHPS4. As regards the IF experiments under hypoxic conditions, HeLa were seeded on sterile coverslips, in a 24-well plate, at a density of 50,000 cells per well, and incubated overnight. […] From there, the cellular and nuclear foci were segmented, and their number or fluorescence intensity was quantified by using the Image Analysis package of ZEISS ZEN 3.1 software.
row,Structure (SMILES),increase of fluorescence intensity of the total number of GQ foci
1,"COc1ccc2cc3[n+](cc2c1OCCCCCn1cc(COc2ccc4ccc(=O)oc4c2)nn1)CCc1cc2c(cc1-3)OCO2 [Compound 39, 10-Methoxy-9-((5–(4-(((2-oxo-2H-chromen-7-yl)oxy)methyl)-1H-1,2,3-triazol-1-yl)pentyl)oxy)-5,6-dihydro-[1,3]dioxolo[4,5-g]isoquinolino[3,2-a]isoquinolin-7-ium hexafluorophosphate]",not affected
2,"COc1ccc2cc3[n+](cc2c1OCCCCn1cc(COc2ccc4ccc(=O)oc4c2)nn1)CCc1cc2c(cc1-3)OCO2 [Compound 37, 10-Methoxy-9–(4-(4-(((2-oxo-2H-chromen-7-yl)oxy)methyl)-1H-1,2,3-triazol-1-yl)butoxy)-5,6-dihydro-[1,3]dioxolo[4,5-g]isoquinolino[3,2-a]isoquinolin-7-ium hexafluorophosphate]",around 30%
3,"COc1ccc2cc3[n+](cc2c1OCCCCn1cc(-c2ccc(S(N)(=O)=O)cc2)nn1)CCc1cc2c(cc1-3)OCO2 [Compound 30, 10-Methoxy-9–(4–(4-(4-sulfamoylphenyl)-1H-1,2,3-triazol-1-yl)butoxy)-5,6-dihydro-[1,3]dioxolo[4,5-g]isoquinolino[3,2-a]isoquinolin-7-ium hexafluorophosphate]",not affected
